Patent US10808018B2, “Erythropoietin-derived peptides and methods of protecting cells from oxidative damage induced by reactive oxygen species” (SYLUS CO., LTD., priority 2017, dated 2020)
Peptide text beside a SMILES is read from it.

Target: T1, Soluble mouse EPOR chimera proteins (erythropoietin receptor) (Mus musculus, UniProt P14753)
T1 construct: Soluble mouse EPOR chimera proteins; purchased R&D Systems
T1 sequence (P14753 25-249 limits assumed): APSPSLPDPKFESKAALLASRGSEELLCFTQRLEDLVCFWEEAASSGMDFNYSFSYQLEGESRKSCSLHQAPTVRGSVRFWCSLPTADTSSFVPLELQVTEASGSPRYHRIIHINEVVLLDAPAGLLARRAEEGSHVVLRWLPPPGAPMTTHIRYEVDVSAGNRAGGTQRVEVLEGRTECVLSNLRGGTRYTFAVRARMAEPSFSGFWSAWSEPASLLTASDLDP
Test: Surface plasmon resonance (SPR) binding affinity to erythropoietin receptor
Conditions: Table 8; for Ka: association rate
Excerpt: The SPR technique is to measure interactions between biomolecules in real-time by using an optical principle without specific labeling, and is a system analyzing affinity between two molecules and kinetics, i.e., an association rate (Ka) and a dissociation rate (Kd). In detail, real-time SPR analysis may be performed using Reichert SPR Biosensor SR […] instrument (Reichert Inc., NY, USA). Soluble mouse EPOR chimera proteins (R&D Systems, Minneapolis, Minn., USA) were covalently linked to a carboxymethylated dextran matrix-coated chip (BR-1005-39, Pharmacia Biosensor AB) by an amine coupling procedure using an amine coupling kit (BR-1000-50, GE Healthcare, USA) in accordance with manufacturer's instructions. Each 5 pM, 2.5 pM, and 1.25 pM of the peptide samples of the present disclosure and scrambled peptides were applied at a flow rate of 5 μl/minute, and the experiments were independently performed in duplicate. For signal normalization, DMSO was applied at a flow rate of 5 μl/minute. After each binding cycle, the sensor chip was regenerated by injecting 25 mM of acetic acid at a flow rate of 20 μl/minute.

Compound | Ka | dissociation rate constant (koff)
CC(C)C[C@H](NC(=O)[C@H](CCC(=O)O)NC(=O)[C@H](CCCNC(=N)N)NC(=O)[C@H](CC(C)C)NC(=O)[C@H](CC(C)C)NC(=O)[C@H](CCCCN)NC(=O)[C@@H](NC(=O)[C@H](CC(C)C)NC(=O)[C@H](CO)NC(=O)[C@H](CCCNC(=N)N)NC(=O)[C@H](CC(C)C)NC(=O)CNC(=O)[C@H](CO)NC(=O)[C@H](CCC(=O)O)NC(=O)[C@H](C)NC(=O)[C@H](CCCCN)NC(=O)[C@H](CCC(N)=O)NC(=O)[C@@H](NC(=O)[C@H](Cc1c[nH]cn1)NC(=O)[C@@H](N)CCCNC(=N)N)C(C)C)[C@@H](C)O)C(=O)O [ML2-1] (H-RHVQKAESGLRSLTKLLREL-OH; N-terminus and C-terminus assumed) | 3.1 × 10^2 | 4.1 × 10^−3
CC(C)[C@H](NC(=O)[C@H](CCCNC(=N)N)NC(=O)[C@@H](N)[C@@H](C)O)C(=O)N[C@@H](CC(N)=O)C(=O)N[C@@H](Cc1ccc(O)cc1)C(=O)N[C@@H](CCC(N)=O)C(=O)N[C@@H](C)C(=O)N[C@@H](Cc1c[nH]c2ccccc12)C(=O)N[C@@H](CCCCN)C(=O)N[C@@H](CCCNC(=N)N)C(=O)O [ML3-1] (H-TRVNYQAWKR-OH; N-terminus and C-terminus assumed) | 3.08 × 10^3 | 1.3 × 10^−2
CC[C@H](C)[C@H](NC(=O)[C@H](C)NC(=O)[C@H](CCC(=O)O)NC(=O)[C@H](CCCCN)NC(=O)[C@H](CCC(N)=O)NC(=O)[C@H](C)NC(=O)CNC(=O)[C@H](CC(C)C)NC(=O)[C@H](C)NC(=O)[C@H](CCCNC(=N)N)NC(=O)[C@H](CC(C)C)NC(=O)[C@@H](NC(=O)[C@H](Cc1c[nH]cn1)NC(=O)[C@@H](NC(=O)[C@H](CC(C)C)NC(=O)[C@@H](NC(=O)[C@H](CCCCN)NC(=O)[C@H](CC(C)C)NC(=O)CNC(=O)[C@H](CO)NC(=O)[C@@H](NC(=O)[C@H](C)NC(=O)[C@H](CCCCN)NC(=O)[C@@H](N)CCCCN)C(C)C)[C@@H](C)O)[C@@H](C)O)[C@@H](C)CC)C(=O)O [ML4-1] (H-KKAVSGLKTLTHILRALGAQKEAI-OH; N-terminus and C-terminus assumed) | 4.10 × 10^2 | 1.20 × 10^−2
CC(C)C[C@H](NC(=O)CNC(=O)[C@H](C)N)C(=O)N[C@@H](CCCNC(=N)N)C(=O)N[C@@H](CO)C(=O)N[C@@H](CCCNC(=N)N)C(=O)N[C@@H](C)C(=O)N[C@@H](Cc1c[nH]cn1)C(=O)N[C@@H](CC(C)C)C(=O)N[C@@H](CCCNC(=N)N)C(=O)N[C@@H](CCCNC(=N)N)C(=O)N[C@@H](C)C(=O)N[C@@H](CC(C)C)C(=O)N[C@@H](C)C(=O)O [ML5-1] (H-AGLRSRAHLRRALA-OH; N-terminus and C-terminus assumed) | 4.42 × 10^2 | 3.46 × 10^−2
CC[C@H](C)[C@H](NC(=O)[C@H](C)NC(=O)[C@H](CCC(=O)O)NC(=O)[C@H](CCCCN)NC(=O)[C@H](CCC(N)=O)NC(=O)[C@H](C)NC(=O)CNC(=O)[C@H](CC(C)C)NC(=O)[C@H](C)NC(=O)[C@H](CCCNC(=N)N)NC(=O)[C@H](CC(C)C)NC(=O)[C@H](CC(C)C)NC(=O)[C@H](CO)NC(=O)[C@@H](NC(=O)[C@H](CC(C)C)NC(=O)[C@H](CO)NC(=O)[C@H](CCCNC(=N)N)NC(=O)[C@H](CC(C)C)NC(=O)CNC(=O)[C@@H](N)CCCCN)[C@@H](C)CC)C(=O)O [ML6-1] (H-KGLRSLISLLRALGAQKEAI-OH; N-terminus and C-terminus assumed) | 1.9 × 10^2 | 3 × 10^−2
CC[C@H](C)[C@H](NC(=O)[C@H](CC(C)C)NC(=O)[C@@H](NC(=O)[C@@H](NC(=O)[C@H](CC(C)C)NC(=O)[C@@H](NC(=O)[C@H](CCCNC(=N)N)NC(=O)[C@H](CC(C)C)NC(=O)CNC(=O)[C@@H](NC(=O)[C@H](C)NC(=O)[C@H](C)NC(=O)[C@H](CCCCN)NC(=O)[C@H](CC(=O)O)NC(=O)[C@@H](NC(=O)[C@H](CCC(=O)O)NC(=O)[C@H](CC(C)C)NC(=O)[C@H](CC(=O)O)NC(=O)[C@H](CC(C)C)NC(=O)[C@H](C)NC(=O)[C@H](CCC(=O)O)NC(=O)[C@@H](N)CC(=O)O)C(C)C)[C@@H](C)O)[C@@H](C)O)[C@@H](C)O)[C@@H](C)O)C(=O)N[C@@H](CCCNC(=N)N)C(=O)N[C@@H](C)C(=O)N[C@@H](CC(C)C)C(=O)O [ML7-1] (H-DEALDLEVDKAATGLRTLTTLIRAL-OH; N-terminus and C-terminus assumed) | 2.26 × 10^2 | 1.44 × 10^−2
CC(C)C[C@H](NC(=O)CNC(=O)[C@H](C)NC(=O)[C@@H](NC(=O)[C@H](C)NC(=O)[C@H](CCCCN)NC(=O)[C@@H](N)CC(N)=O)C(C)C)C(=O)N[C@@H](CCCNC(=N)N)C(=O)N[C@@H](CO)C(=O)N[C@@H](CC(C)C)C(=O)N[C@H](C(=O)N[C@H](C(=O)N[C@@H](CC(N)=O)C(=O)O)C(C)C)[C@@H](C)O [ML8-1] (H-NKAVAGLRSLTVN-OH; N-terminus and C-terminus assumed) |  | 1.5 × 10^−1

Results, then the molecule that gave them:

Ka | dissociation rate constant (koff) | Compound
 | 4.4 × 10^−3 | CC(C)C[C@H](NC(=O)[C@H](C)NC(=O)[C@H](CCCNC(=N)N)NC(=O)[C@H](CC(C)C)NC(=O)[C@H](CC(C)C)NC(=O)[C@@H](NC(=O)[C@@H](NC(=O)[C@H](CC(C)C)NC(=O)[C@H](CO)NC(=O)[C@H](CCCNC(=N)N)NC(=O)[C@H](CC(C)C)NC(=O)CNC(=O)[C@H](CO)NC(=O)[C@@H](NC(=O)[C@H](C)NC(=O)[C@H](CCCCN)NC(=O)[C@H](CC(=O)O)NC(=O)[C@@H](NC(=O)[C@H](Cc1c[nH]cn1)NC(=O)[C@@H](N)CC(C)C)C(C)C)C(C)C)[C@@H](C)O)[C@@H](C)O)C(=O)O [ML2] (H-LHVDKAVSGLRSLTTLLRAL-OH; N-terminus and C-terminus assumed)
2.05 × 10^2 | 3 × 10^−3 | CC(C)[C@H](NC(=O)[C@H](CCCCN)NC(=O)[C@@H](N)[C@@H](C)O)C(=O)N[C@@H](CC(N)=O)C(=O)N[C@@H](Cc1ccccc1)C(=O)N[C@@H](Cc1ccc(O)cc1)C(=O)N[C@@H](C)C(=O)N[C@@H](Cc1c[nH]c2ccccc12)C(=O)N[C@@H](CCCCN)C(=O)N[C@@H](CCCNC(=N)N)C(=O)O [ML3] (H-TKVNFYAWKR-OH; N-terminus and C-terminus assumed)
2.2 × 10^2 | 2.2 × 10^−3 | CC[C@H](C)[C@H](NC(=O)[C@H](C)NC(=O)[C@H](CCC(=O)O)NC(=O)[C@H](CCCCN)NC(=O)[C@H](CCC(N)=O)NC(=O)[C@H](C)NC(=O)CNC(=O)[C@H](CC(C)C)NC(=O)[C@H](C)NC(=O)[C@H](CCCNC(=N)N)NC(=O)[C@H](CC(C)C)NC(=O)[C@H](CC(C)C)NC(=O)[C@@H](NC(=O)[C@@H](NC(=O)[C@H](CC(C)C)NC(=O)[C@H](CO)NC(=O)[C@H](CCCNC(=N)N)NC(=O)[C@H](CC(C)C)NC(=O)CNC(=O)[C@H](CO)NC(=O)[C@@H](NC(=O)[C@H](C)NC(=O)[C@H](CCCCN)NC(=O)[C@@H](N)CC(=O)O)C(C)C)[C@@H](C)O)[C@@H](C)O)C(=O)O [ML4] (H-DKAVSGLRSLTTLLRALGAQKEAI-OH; N-terminus and C-terminus assumed)
3.04 × 10^2 | 0.1 × 10^−3 | CC(C)C[C@H](NC(=O)CNC(=O)[C@@H](N)CO)C(=O)N[C@@H](CCCNC(=N)N)C(=O)N[C@@H](CO)C(=O)N[C@@H](CC(C)C)C(=O)N[C@H](C(=O)N[C@H](C(=O)N[C@@H](CC(C)C)C(=O)N[C@@H](CC(C)C)C(=O)N[C@@H](CCCNC(=N)N)C(=O)N[C@@H](C)C(=O)N[C@@H](CC(C)C)C(=O)NCC(=O)O)[C@@H](C)O)[C@@H](C)O [ML5] (H-SGLRSLTTLLRALG-OH; N-terminus and C-terminus assumed)
 | 4.5 × 10^−2 | CC[C@H](C)[C@H](NC(=O)[C@H](C)NC(=O)[C@H](CCC(=O)O)NC(=O)[C@H](CCCCN)NC(=O)[C@H](CCC(N)=O)NC(=O)[C@H](C)NC(=O)CNC(=O)[C@H](CC(C)C)NC(=O)[C@H](C)NC(=O)[C@H](CCCNC(=N)N)NC(=O)[C@H](CC(C)C)NC(=O)[C@H](CC(C)C)NC(=O)[C@@H](NC(=O)[C@@H](NC(=O)[C@H](CC(C)C)NC(=O)[C@H](CO)NC(=O)[C@H](CCCNC(=N)N)NC(=O)[C@H](CC(C)C)NC(=O)CNC(=O)[C@@H](N)CO)[C@@H](C)O)[C@@H](C)O)C(=O)O [ML6]
1.8 × 10^2 | 0.8 × 10^−1 | CC(C)C[C@H](NC(=O)[C@H](C)NC(=O)[C@H](CCCNC(=N)N)NC(=O)[C@H](CC(C)C)NC(=O)[C@H](CC(C)C)NC(=O)[C@@H](NC(=O)[C@@H](NC(=O)[C@H](CC(C)C)NC(=O)[C@H](CO)NC(=O)[C@H](CCCNC(=N)N)NC(=O)[C@H](CC(C)C)NC(=O)CNC(=O)[C@H](CO)NC(=O)[C@@H](NC(=O)[C@H](C)NC(=O)[C@H](CCCCN)NC(=O)[C@@H](N)CC(=O)O)C(C)C)[C@@H](C)O)[C@@H](C)O)C(=O)O [ML8] (H-DKAVSGLRSLTTLLRAL-OH; N-terminus and C-terminus assumed)
